Measurements as given in patent US8012484B2, “Method of treating ischemia reperfusion injury by inhibiting NKT cell activity” (University of Virginia Patent Foundation, priority 2007, dated 2011).
pEC50: −log10 of the molar value.

Key:
[1] = test system: invariant NKT cells in a mixed splenocyte culture; test: α-Gal-Cer stimulated IFN-γ production by iNKT cells in mixed splenocyte culture; type: cell-based, mice; details: for effect of antagonist on ATL146e inhibition of α-Gal-Cer mediated IFN-γ production: 1 μM α-Gal-Cer
Protocol: (§1) FIGS. 5A-E. Inhibition by ATL146e of IFN-γ production by activated NKT cells. A) Purified NKT cells (200,000 per well) were incubated on immobilized anti-CD3 mAb in the presence of vehicle or 100 nM ATL146e. Supernatants were collected after 24 hours and IFN-γ concentrations were measured by ELISA. Data are shown as the mean±SEM from three independent experiments performed in triplicate. *p<0.01 vs. vehicle control as assessed by unpaired t-test B) Bulk splenocytes (300,000 cells per well) were incubated with 1 U/mL ADA and 1 nM-1 μM α-galactosylceramide in the presence of 100 nM ATL146e or vehicle. C) Bulk splenocytes (300,000 cells per well) were incubated with 1 U/mL ADA and 1 μM α-galactosylceramide in the presence or absence of varying concentrations of ATL146e±100 nM ZM241385 or vehicle. D) Bulk splenocytes (300,000 cells per well) were incubated with 1 U/mL ADA and 1 μM α-galactosylceramide in the presence or absence of 1 nM ATL146e±1 μM 8-SPT or vehicle. E) Purified CD4^+NK1.1^+ T cells (150,000 cells per well) were incubated with lymphocyte and NK cell-deficient splenocytes (300,000 cells per well), 1 U/mL ADA and 1 μM α-galactosylceramide in the presence or absence of 100 nM ATL146e±100 nM ZM241385. NK1.1-expressing cells were depleted from RAG 1 KO splenocytes via FACSVantage SE Turbo Sorter. Supernatants were collected after 48 hours, and IFN-γ concentrations were determined by ELISA. Data shown are from a single experiment performed in triplicate, representative of three independent experiments; error bars indicate SEM. (B-E)*p<0.01 vs. vehicle control as assessed by one way ANOVA followed by Dunnetts multiple comparison test.
Cells were washed and resuspended in RPMI 1640 medium supplemented with 10% heat-inactivated fetal bovine serum and 1% antibiotic-antimycotic (Gibco, Carlsbad, Calif.). In vitro activation of NKT cells was achieved by co-culture for 48 hours with splenocytes and 1 nM-1 μM α-Gal-Cer (KRN7000; from Kumi Miyayama of Kirin Brewery Company, Tokyo) at 37° C. in 5% CO2. Alternately, NKT cells were activated by incubation for 24 hours in 96 well plates coated with 2-10 μg/mL immobilized anti-CD3 mAb (BD Biosciences) at 37° C. in 5% CO2. All in vitro T cell activation experiments were performed with the addition of 1 U/mL adenosine deaminase (ADA) (Roche, Indianapolis, Ind.) to remove endogenous adenosine produced by the cells that may partially activate the A2AR. […]
(§2) IFN-γ concentrations in cell culture supernatants or serum samples were measured by ELISA according to the manufacturer's protocol (e-Bioscience).

[2] = test system: RAG 1 KO mice reconstituted with CD4+NK1.1+ NKT cells; test: Hepatic IRI in RAG 1 KO mice after adoptive transfer of NKT cells: serum ALT; type: in vivo
Protocol: (§3) Mice were anesthetized by intraperitoneal injection of ketamine (100 mg/kg) and xylazine (10 mg/kg). Ambient temperature was controlled in the range of 24-26° C. and mice were placed on a 37° heating pad. Core body temperature of selected mice was monitored with a TH-8 Thermalert monitoring thermometer (Physitemp) and ranged from 35-36°. After midline laparotomy, a microaneurysm clip was applied to the hepatic triad above the bifurcation to clamp the flow of the hepatic artery, portal vein, and bile duct. After superfusion of the liver with warm saline, the peritoneum was closed during 72 min of ischemia. The peritoneum was then reopened and the microaneurysm clip was removed. For select experiments, animals received an i.p. loading dose (1 μg/kg) of ATL146e or vehicle control immediately after the onset of reperfusion, and a primed Alzet osmotic minipump was implanted intraperitoneally. […]
(§4) Following liver ischemia, blood was collected via retro-orbital bleed 24 hours after the initiation of reperfusion. Serum ALT was measured with a transaminase kit according to the manufacture's protocol (Pointe Scientific, Canton, Mich.). […] The plate was placed in a spectrophotometer preheated to 37° C., and the absorbance at […] was measured every minute for 10 minutes. The slope of the linear portion of the change in absorbance over time was used to calculate IU/L of ALT.

[3] = test system: IFN-γ; test: Serum/plasma IFN-γ 24 hours after reperfusion (ELISA); type: in vivo, mice; details: 24 hours after reperfusion injury
Protocol: as §3, with “intraperitoneally. ATL146e (10 ng/kg/min) or vehicle was placed in the pumps and delivered until the experiment was terminated. The peritoneum was sutured and the surgical wound was closed with metal staples. Animals were sacrificed by cervical dislocation at various time points after the initiation of reperfusion and blood was collected via retro-orbital bleed.” for “intraperitoneally.”
as §2

[4] = test system: NKT cells isolated from post-ischemic mouse liver and liver-draining lymph nodes; test: Intracellular IFN-γ in NKT cells from post-ischemic liver after 2 hours of reperfusion (FACS); type: in vivo, mice; details: treatment at the initiation of reperfusion
Protocol: as §3, with “intraperitoneally. ATL146e (10 ng/kg/min) or vehicle was placed in the pumps and delivered until the experiment was terminated. The peritoneum was sutured and the surgical wound was closed with metal staples.” for “intraperitoneally.”
Intracellular IFN-γ was detected in liver NKT cells by FACS analysis using Fix and Perm Cell Permeabilization Reagents according to the manufacturer's protocol (Caltag Laboratories, Carlsbad, Calif.).

[5] = test system: hepatic IRI in WT C57BL/6 mice; test: Hepatic ischemia reperfusion injury (72 min ischemia, 24 h reperfusion): serum ALT and necrotic area; type: in vivo; details: 72 min hepatic ischemia
Protocol: as §3, with “removed.” for “removed. For select experiments, animals received an i.p. loading dose (1 μg/kg) of ATL146e or vehicle control immediately after the onset of reperfusion, and a primed Alzet osmotic minipump was implanted intraperitoneally.”
as §4
Mice were sacrificed and livers perfused with saline via the portal vein at various times after the initiation of reperfusion. […] Necrotic area was quantified using Adobe Photoshop software.

[6] = test system: CD4+ NK1.1+ NKT cells; test: IFN-γ production by purified NKT cells activated on immobilized anti-CD3 mAb; type: cell-based, mice; details: Mus musculus, 100 nM, 24 hours of incubation, read-out: inhibition of TCR-stimulated IFN-γ production
Protocol: Wild-type, A2AR KO, or IFN-γ KO C57BL/6 mice were sacrificed and spleens removed. Splenocytes were passed through a 40 μm nylon cell strainer (BD Biosciences, San Jose, Calif.) and collected in phosphate buffered saline. Red blood cells were lysed and CD4^+ T lymphocytes were isolated with mouse CD4 subset column kits (R and D Systems, Minneapolis, Minn.) resulting in >92% pure CD4^+ T cells. The column-purified cells were stained for 30 minutes with FITC-conjugated anti-mouse CD4 and PE-conjugated anti-mouse NK1.1 (eBioscience, San Diego, Calif.) and sorted using a FACSVantage SE Turbo Sorter (Becton Dickinson, Franklin Lakes, N.J.) to produce cell populations of ≧99.8% pure CD4^+NK1.1^+ T lymphocytes.
Cells were washed and resuspended in RPMI 1640 medium supplemented with 10% heat-inactivated fetal bovine serum and 1% antibiotic-antimycotic (Gibco, Carlsbad, Calif.). In vitro activation of NKT cells was achieved by co-culture for 48 hours with splenocytes and 1 nM-1 μM α-Gal-Cer (KRN7000; from Kumi Miyayama of Kirin Brewery Company, Tokyo) at 37° C. in 5% CO2. Alternately, NKT cells were activated by incubation for 24 hours in 96 well plates coated with 2-10 μg/mL immobilized anti-CD3 mAb (BD Biosciences) at 37° C. in 5% CO2. […]
as §2

[7] = test system: purified CD4+ NK1.1+ NKT cells; test: IFN-γ release from purified NKT cells activated with α-Gal-Cer in the presence of NK cell-depleted RAG 1 KO splenocytes; type: cell-based, mice; details: 1 μM α-Gal-Cer
Protocol: as §1, with “E) Purified CD4^+NK1.1^+ T cells (150,000 cells per well) were incubated with lymphocyte and NK cell-deficient splenocytes (300,000 cells per well), 1 U/mL ADA and 1 μM α-galactosylceramide in the presence or absence of 100 nM ATL146e±100 nM ZM241385. NK1.1-expressing cells were depleted from RAG 1 KO splenocytes via FACSVantage SE Turbo Sorter.” left out, “Data shown are from a single experiment performed in triplicate, representative of three independent experiments; error bars indicate SEM.” left out, “test. […]” for “test.”
as §2

Cn1c(=O)c2[nH]c(-c3ccc(S(=O)(=O)O)cc3)nc2n(C)c1=O [8-SPT, 8-sulfophenyltheophylline]
effect of antagonist on ATL146e inhibition of α-Gal-Cer mediated IFN-γ production ([1]; 1 μM antagonist, 1 nM ATL146e): blocks the inhibitory effects of ATL146e

CCNC(=O)C1OC(n2cnc3c(N)nc(C#CCC4CCC(C(=O)OC)CC4)nc32)C(O)C1O (stereo not shown) [ATL146e, 4-{3-[6-Amino-9-(5-ethylcarbamoyl-3,4-dihydroxy-tetrahydro-furan-2-yl)-9H-purin-2-yl]-prop-2-ynyl}-cyclohexanecarboxylic acid methyl ester]
inhibition of α-Gal-Cer stimulated IFN-γ production (in words) ([1]; 100 nM, 1 nM-1 μM α-Gal-Cer, mixed splenocyte culture, 48 hours): inhibited competently
pEC50 ([1]; Mus musculus, NKT, stimulated by 1 μM α-Gal-Cer, mixed splenocytes, 48 hours, read-out: EC50 of inhibition of iNKT-mediated production of IFN-γ): 9.24
protection from tissue damage (serum ALT) ([2]; RAG 1 KO mice, 250,000 NKT cells from A2AR KO mice transferred): abolishes the effect of agonist administration
protection from tissue damage (serum ALT) ([2]; RAG 1 KO mice, 250,000 WT NKT cells transferred): protects from tissue damage only when WT cells are transferred
elevation of plasma IFN-γ concentrations [3]: diminished this elevation to a similar extent
increase in intracellular IFN-γ expression of NKT cells (activation) [4]: significantly inhibits this activation
reduction in serum ALT levels versus vehicle treated controls ([5]; 24 hours after reperfusion): approximately 58%
necrotic area ([5]; 24 hours of reperfusion, H and E staining, vehicle 79.3±3%): 6.1±0.8%
inhibition at 0.1 µM [6]: ~73%
reduction of IFN-γ derived from NKT cell activation ([7]; 100 nM ATL146e, lymphocyte-deficient NK cell-depleted RAG 1 KO splenocytes as APCs): 93%

Nc1nc(NCCc2ccc(O)cc2)nc2nc(-c3ccco3)nn12 [ZM241385, 4-(2-[7-amino-2-[2-furyl][1,2,4]triazolo[2,3-a][1,3,5]triazin-5-yl-amino]ethyl)phenol]
effect of antagonist on ATL146e inhibition of α-Gal-Cer mediated IFN-γ production ([1]; 100 nM antagonist, varying concentrations of ATL146e): causes a right shift in the ATL146e dose response curve
effect of antagonist on ATL146e reduction of IFN-γ ([7]; co-treatment with 100 nM antagonist): this effect was blocked
